Experimental data taken from PMC5011760, “Luteolin Attenuates Airway Mucus Overproduction via Inhibition of the GABAergic System” (Scientific Reports, 2016).

Test system: T1, GABAA receptors (GABAAR) in A549 cells
T1 construct: gene GABRA3; endogenous receptors of A549 cells, pentameric; exact subunit composition not determined (members = most abundant subunit mRNAs)
Experiment: whole-cell patch clamp, A549 cells
Format: cell-based
Details: inhibition of currents evoked by 2.5 μM GABA; -60 mV, pH 7.4; authors call it allosteric modulator

## O=c1cc(-c2ccc(O)c(O)c2)oc2cc(O)cc(O)c12 [luteolin, 3′,4′,5,7-tetrahydroxyflavone]
  IC50: 8.2 µM
